Assay results reported in patent US20250177405A1, “METHODS OF TREATING NEUROLOGICAL AND CARDIOVASCULAR CONDITIONS” (ASTROCYTE PHARMACEUTICALS, INC., priority 2021, published 2025).

Assay: neonatal pig pharmacokinetics: CSF versus brain extracellular fluid concentrations
Format: in vivo
Conditions: brain equilibrium dialysis
Source text: Using this receptor occupancy estimate, we advanced to studies in neonatal pigs, targeting doses that would yield unbound brain and CSF concentrations that would provide a similar receptor occupancy to that associated with efficacy in the rodent models. In the pig, we had the advantage of conducting pharmacokinetic studies involving CSF collection, brain equilibrium dialysis to directly determine brain unbound extracellular fluid concentrations, plasma concentrations and finally total brain concentrations. […] This was a key study to validate the use of I-1 CSF concentrations to estimate brain receptor occupancy. In the pig efficacy studies, we achieved efficacy at estimated receptor occupancies of around 2%.
Animals. Four-week old female neonatal pigs weighing approximately 7.5 Kg may be used for this study. Animals are equipped with brain microdialysis probes to obtain brain extracellular fluid samples for drug concentration determinations during the study.
Tissue Sampling: Blood samples are obtained at 0.25, 0.5, 1, 2, 4 and 6 hours post-dose. […]
Plasma, brain, brain extracellular fluid and cerebrospinal fluid concentrations of test compound are determined by LC-MS/MS utilizing tolbutamide as an internal standard. For each tissue matrix, standard curves are created and LLOQ/ULOQ concentrations determined.

Structure (SMILES): CSc1nc(N)c2ncn([C@H]3C(O)C(O)[C@]4(CO)C[C@H]34)c2n1 (stereo in doubt) [Compound I-1]
- I-1 concentrations in the CSF versus unbound brain extracellular fluid: equal to unbound brain extracellular fluid concentrations
